The results in this text go back to PubChem BioAssay AID2060488 (Molecular Pharmacology Branch, DTP, NCI, 2025).

Values joined by “and” are separate entries in the source; they are usually repeats but may differ in a detail not shown here. Identical values can stand only once.

By viability, T/C is commonly meant the result in the treated group divided by that in the control group, in per cent. In general, IC50 refers to the concentration at which inhibition is half-maximal.

The assay concerns 966289-007-R4-J1-PDC complex spheroid viability. Nature of the assay: Anticancer human tumor 966289-007-R4-J1-PDC patient-derived pancreatic adenocarcinoma cell line growth inhibition [GQUAD]. The following applies: for viability, T/C: stronger effect = lower value. An outline of the steps:
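Tumor cells were grown as complex spheroids with HUVEC endothelial cells and mesenchymal stem cells as stroma. G-quadruplex stabilizers were combined with targeted agents over half-log dilutions from near the clinical Cmax, or from 10 microM.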
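Also: spheroids exposed to the agents for seven days before readout.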
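For viability, T/C in this document: percent viability relative to DMSO vehicle control wells taken as 100%.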

Turning to `COc1cccc2c1C(=O)c1c(O)c3c(c(O)c1C2=O)CC(O)(C(=O)CO)CC3OC1CC(N)C(O)C(C)O1` (stereo unspecified), the viability, T/C was 112% and 114% and 102% (compound 0.0316 µM); 12.9% and 19.6% and 8.98% (compound 0.1 µM); 3.19% and 2.75% and 1.72% (compound 0.316 µM); 0.71% and 0.91% and 0.56% (compound 1 µM); 0.27% and 0.41% and 0.16% (compound 3.16 µM); 0.4% and 0.47% and 0.34% (compound 10 µM). Also, the IC50 (curve of compound) was 65 nM and 69 nM and 60.2 nM.
Take `CN(C)c1ccc(Nc2c3ccc(NC(=O)CCN4CCCC4)cc3nc3cc(NC(=O)CCN4CCCC4)ccc23)cc1`: the viability, T/C (compound 0.0316 µM) was 104% [middle of 12 runs]; the viability, T/C (compound 0.1 µM) was 107% [middle of 12 runs]; the viability, T/C (compound 0.316 µM) was 108% [middle of 11 runs]; the viability, T/C (compound 1 µM) is 108% [middle of 12 runs]; the viability, T/C (compound 3.16 µM) was 98.7% [middle of 12 runs]; the viability, T/C (compound 10 µM) is 99.8% [middle of 12 runs]. The IC50 (compound alone, run of 03/26/2024) was greater than 10000 nM.
On to `C=CCn1c(=O)c2cnc(Nc3ccc(N4CCN(C)CC4)cc3)nc2n1-c1cccc(C(C)(C)O)n1`, for which the viability, T/C reads like this: (compound 0.0316 µM) 102% and 99.9% and 97.9%; (compound 0.1 µM) 105% and 97.2% and 108%; (compound 0.316 µM) 110% and 113% and 120%; (compound 1 µM) 101% and 105% and 81.8%; (compound 3.16 µM) 4.65% and 8.05% and 2.6%; (compound 10 µM) 1.72% and 1.84% and 1.48%. For the same compound, the IC50 (curve of compound) was 1840 nM and 1910 nM and 1580 nM.
